Experiment: mn = molality of the nth substance listed, in mol/kg
Conditions: 100 kPa, Liquid; for viscosity: Capillary tube (Ostwald / Ubbelohde) method; for speed of sound: Frequency=3 MHz, Sing-around technique in a fixed-path interferometer; for mass density: Vibrating tube method

CN(C)C(=N)NC(=N)N.Cl [N,N-dimethylimidodicarbonimidic diamide hydrochloride] + O
Conditions	mass density, m1 = 0.01 [kg/m3]	mass density, m1 = 0.07 [kg/m3]	mass density, m1 = 0.13 [kg/m3]	speed of sound, m1 = 0.01 [m/s]	speed of sound, m1 = 0.07 [m/s]	speed of sound, m1 = 0.13 [m/s]	viscosity, m1 = 0.01 [mPa·s]	viscosity, m1 = 0.07 [mPa·s]	viscosity, m1 = 0.13 [mPa·s]
293.15 K	998.57	1000.83	1003.13	1483.3	1490.2	1496.3	1.01	1.015	1.019
298.15 K	997.402	999.633	1001.9	1497.3	1503.9	1509.7	0.8925	0.899	0.9052
303.15 K	995.993	998.2	1000.45	1509.7	1515.8	1521.3	0.8013	0.8074	0.8126
308.15 K	994.369	996.524	998.785	1520.3	1526	1531.3	0.7245	0.7285	0.7333
313.15 K	992.542	994.71	996.926	1529.4	1534.8	1539.8	0.6566	0.6606	0.6662

NC(=O)CC[C@H](N)C(=O)O [L-glutamine] + O
Conditions	mass density [kg/m3]	speed of sound [m/s]	viscosity [mPa·s]
293.15 K, m1 = 0.02	999.262	1484	1.012
293.15 K, m1 = 0.04	1000.32	1485.3	1.017
293.15 K, m1 = 0.06	1001.38	1486.9	1.022
293.15 K, m1 = 0.08	1002.44	1488.4	1.027
293.15 K, m1 = 0.1	1003.5	1490.1	1.031
293.15 K, m1 = 0.12	1004.57	1491.8	1.035
293.15 K, m1 = 0.14	1005.63	1493.5	1.039
293.15 K, m1 = 0.16	1006.69	1495.3	1.043
293.15 K, m1 = 0.18	1007.76	1497.2	1.047
293.15 K, m1 = 0.2	1008.82	1499	1.051
298.15 K, m1 = 0.02	998.094	1498	0.8984
298.15 K, m1 = 0.04	999.147	1499.3	0.9028
298.15 K, m1 = 0.06	1000.2	1500.8	0.9067
298.15 K, m1 = 0.08	1001.26	1502.3	0.9104
298.15 K, m1 = 0.1	1002.32	1503.9	0.9143
298.15 K, m1 = 0.12	1003.37	1505.6	0.9175
298.15 K, m1 = 0.14	1004.43	1507.3	0.9212
298.15 K, m1 = 0.16	1005.49	1509	0.9246
298.15 K, m1 = 0.18	1006.56	1510.7	0.9277
298.15 K, m1 = 0.2	1007.62	1512.6	0.9308
303.15 K, m1 = 0.02	996.679	1510.3	0.8039
303.15 K, m1 = 0.04	997.722	1511.6	0.8076
303.15 K, m1 = 0.06	998.771	1513	0.8109
303.15 K, m1 = 0.08	999.819	1514.5	0.8141
303.15 K, m1 = 0.1	1000.87	1516	0.817
303.15 K, m1 = 0.12	1001.92	1517.7	0.82
303.15 K, m1 = 0.14	1002.97	1519.4	0.8224
303.15 K, m1 = 0.16	1004.02	1521	0.8254
303.15 K, m1 = 0.18	1005.09	1522.7	0.8283
303.15 K, m1 = 0.2	1006.14	1524.5	0.8316
308.15 K, m1 = 0.02	995.051	1520.9	0.7243
308.15 K, m1 = 0.04	996.088	1522.2	0.7275
308.15 K, m1 = 0.06	997.129	1523.6	0.7302
308.15 K, m1 = 0.08	998.171	1525	0.7329
308.15 K, m1 = 0.1	999.218	1526.5	0.7352
308.15 K, m1 = 0.12	1000.26	1528.1	0.7379
308.15 K, m1 = 0.14	1001.31	1529.8	0.7405
308.15 K, m1 = 0.16	1002.36	1531.4	0.7425
308.15 K, m1 = 0.18	1003.41	1533.1	0.7448
308.15 K, m1 = 0.2	1004.48	1534.8	0.7469
313.15 K, m1 = 0.02	993.226	1530	0.6569
313.15 K, m1 = 0.04	994.257	1531.3	0.6595
313.15 K, m1 = 0.06	995.294	1532.6	0.6621
313.15 K, m1 = 0.08	996.332	1534	0.6638
313.15 K, m1 = 0.1	997.372	1535.5	0.666
313.15 K, m1 = 0.12	998.413	1537.1	0.6682
313.15 K, m1 = 0.14	999.457	1538.6	0.6702
313.15 K, m1 = 0.16	1000.5	1540.3	0.6716
313.15 K, m1 = 0.18	1001.56	1542	0.674
313.15 K, m1 = 0.2	1002.6	1543.7	0.6759
